This note sets out measurements from patent US20240158412A1 (Faxian Therapeutics, LLC, priority 2021, published 2024).
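Further: fluorescence intensity readout of USP7 enzymatic activity, reaction incubated 90 min at room temperature.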

In this assay the target is USP7 (Homo sapiens, UniProt Q93009). The assay is described as follows: biochemical.
USP7, sequence (Q93009 whole entry): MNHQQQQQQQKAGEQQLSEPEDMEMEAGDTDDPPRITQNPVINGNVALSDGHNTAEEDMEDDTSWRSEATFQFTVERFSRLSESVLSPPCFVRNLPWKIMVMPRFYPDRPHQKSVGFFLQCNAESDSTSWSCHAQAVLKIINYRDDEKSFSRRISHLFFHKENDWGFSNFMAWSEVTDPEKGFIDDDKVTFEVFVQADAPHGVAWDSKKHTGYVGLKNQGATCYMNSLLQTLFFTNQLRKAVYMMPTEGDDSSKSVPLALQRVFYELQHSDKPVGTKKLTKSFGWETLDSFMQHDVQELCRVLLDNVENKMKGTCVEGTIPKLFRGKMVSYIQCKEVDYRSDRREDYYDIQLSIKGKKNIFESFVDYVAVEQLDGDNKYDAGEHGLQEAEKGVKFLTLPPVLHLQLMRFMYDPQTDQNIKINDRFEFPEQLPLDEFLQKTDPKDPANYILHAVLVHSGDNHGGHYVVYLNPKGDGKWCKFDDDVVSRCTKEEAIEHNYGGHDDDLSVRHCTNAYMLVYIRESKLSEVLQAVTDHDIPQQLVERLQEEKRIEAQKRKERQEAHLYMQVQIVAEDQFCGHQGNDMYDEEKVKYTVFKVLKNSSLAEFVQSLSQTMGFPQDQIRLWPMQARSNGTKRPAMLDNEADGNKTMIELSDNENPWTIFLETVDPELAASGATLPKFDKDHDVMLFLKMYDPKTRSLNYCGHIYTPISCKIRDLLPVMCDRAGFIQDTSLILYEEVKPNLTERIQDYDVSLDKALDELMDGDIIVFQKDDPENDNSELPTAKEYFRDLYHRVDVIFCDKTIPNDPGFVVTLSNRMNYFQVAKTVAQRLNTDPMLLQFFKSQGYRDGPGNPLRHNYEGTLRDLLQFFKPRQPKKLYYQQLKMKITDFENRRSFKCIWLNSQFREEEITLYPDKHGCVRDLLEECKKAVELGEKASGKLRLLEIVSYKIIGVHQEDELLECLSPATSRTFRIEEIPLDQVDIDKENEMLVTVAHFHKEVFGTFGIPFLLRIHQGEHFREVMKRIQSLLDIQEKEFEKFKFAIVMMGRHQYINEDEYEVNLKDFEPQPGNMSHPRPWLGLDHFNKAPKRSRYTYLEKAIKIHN
Method: Example A. Biochemical Assay of USP7 Inhibitor Potency (IC50)
Fluorescence intensity assay of USP7 activity in the presence USP7 inhibitors. Recombinant USP7 protein (catalogue number E-519) and the fluorescence substrate ubiquitin-rhodamine 110 (Rh110) (catalogue number U-555) were purchased from Boston Biochem (840 Memorial Drive, Cambridge, MA 02139). The reaction was carried out in buffer 20 mM HEPES, pH 7.3, 150 mM NaCl, 1 mM TCEP, 125 μg/mL BSA at room temperature in a black 384-well Microplate (Greiner, catalog number 781076).
Test compounds were dissolved in DMSO to make 50 mM stock solution. […] In wells of a black 384-well Microplate, 15 μl of 100 pM of USP7 enzyme was added to each well with pre-diluted compounds and incubated at room temperature for 30 minutes, followed by addition of 10 μl of ubiquitin-rhodamine 110 (Rh110) substrate to reach 160 nM final concentration. The reaction mixtures were incubated for additional 90 minutes at room temperature. The fluorescence signal of the digested substrate was measured on an EnVision microplate reader (PerkinElmer,), using excitation at 485 nm and emission at 535 nm. The IC50 values were calculated using XLfit software.
The IC50 is the concentration at which inhibition is half-maximal. `O=C1CCC(=O)N1Cc1cc2nccc(-c3cc(Cl)cc4c3N(C3CNC5(CCC5)C3)CCO4)c2s1` (single isomer, unassigned) [Example 171b] yielded an IC50 of less than 10 nM. Turning to `CC1(C)C[C@@H](N2CCCc3cc(Cl)cc(-c4ccnc5cc(Cn6c(=O)ccn(CC(F)(F)F)c6=O)sc45)c32)CN1` (single isomer, unassigned) [Example 118a], the 50% inhibitory concentration (IC50) was in the range of 10 to 100 nM.

On to `O=C1CCC(=O)N1Cc1cc2nccc(-c3cc(C(F)(F)F)cc4c3N(C3CNC5(CCC5)C3)CCO4)c2s1` (single isomer, unassigned) [Example 175b], for which the IC50 was less than 10 nM. With `O=C(c1cc2nccc(-c3cc(Cl)cc4c3N(C3CNC3)CCC4)c2s1)N1CCC1` [Example 38, Azetidin-1-yl-[7-[1-(azetidin-3-yl)-6-chloro-3,4-dihydro-2H-quinolin-8-yl]thieno[3,2-b]pyridin-2-yl]methanone], the IC50 was greater than 1000 nM. The compound `O=C1CCC(=O)N1Cc1cc2nccc(-c3cc(Cl)cc4c3N(C3CNC5(CC(F)C5)C3)CCC4)c2s1` (single isomer, unassigned) [Example 177a] gave an IC50 of less than 10 nM. As to `N#Cc1cc2c(c(-c3ccnc4cc(Cn5c(=O)ccn(CC(F)(F)F)c5=O)sc34)c1)N([C@H]1CCN(C3CCC3)C1)CCC2` [Example 86, (S)-1-(1-cyclobutylpyrrolidin-3-yl)-8-(2-((2,6-dioxo-3-(2,2,2-trifluoroethyl)-2,3-dihydropyrimidin-1(6H)-yl)methyl)thieno[3,2-b]pyridin-7-yl)-1,2,3,4-tetrahydroquinoline-6-carbonitrile], the concentration for half-maximal inhibition (IC50) lay within 10 to 100 nM. `CC(C)(C)c1cnn(Cc2cc3nccc(-c4cc(C#N)cc5c4N([C@@H]4CN[C@@](C)(CO)C4)C(=O)CO5)c3s2)c(=O)c1` [Example 225, 5-(2-((4-(tert-butyl)-6-oxopyridazin-1(6H)-yl)methyl)thieno[3,2-b]pyridin-7-yl)-4-((3S,5R)-5-(hydroxymethyl)-5-methylpyrrolidin-3-yl)-3-oxo-3,4-dihydro-2H-benzo[b][1,4]oxazine-7-carbonitrile] displayed an IC50 of less than 10 nM. As for `O=C1CCC(=O)N1Cc1cc2nccc(-c3cc(Cl)cc4c3N([C@@H]3CNC(CO)(CO)C3)CCC4)c2s1` (single isomer, unassigned) [Example 181a], the 50% inhibitory concentration (IC50) was less than 10 nM. On to `CC(F)(F)Cn1ccc(=O)n(Cc2cc3nccc(-c4cc(Cl)cc5c4N([C@H]4CCNC4)CCC5)c3s2)c1=O` [Example 103, (S)-3-((7-(6-chloro-1-(pyrrolidin-3-yl)-1,2,3,4-tetrahydroquinolin-8-yl)thieno[3,2-b]pyridin-2-yl)methyl)-1-(2,2-difluoropropyl)pyrimidine-2,4(1H,3H)-dione], for which the 50% inhibitory concentration (IC50) was less than 10 nM. For `O=C1CCC(=O)N1Cc1cc2nccc(-c3cc(Cl)cc4c3N(C3CNC3)CCC4)c2s1` [Example 1, 1-((7-(1-(azetidin-3-yl)-6-chloro-1,2,3,4-tetrahydroquinolin-8-yl)thieno[3,2-b]pyridin-2-yl)methyl)pyrrolidine-2,5-dione], the concentration for half-maximal inhibition (IC50) lay within 10 to 100 nM. `COC(=O)[C@@]1(C)C[C@H](N2CCCc3cc(Cl)cc(-c4ccnc5cc(CN6C(=O)CCC6=O)sc45)c32)CN1` (single isomer, unassigned) [Example 203] had a concentration for half-maximal inhibition (IC50) of less than 10 nM. With `O=c1ccn(CC2(C(F)F)CC2)c(=O)n1Cc1cc2nccc(-c3cc(Cl)cc4c3N([C@H]3CCNC3)CCC4)c2s1` [Example 69, (S)-3-((7-(6-chloro-1-(pyrrolidin-3-yl)-1,2,3,4-tetrahydroquinolin-8-yl)thieno[3,2-b]pyridin-2-yl)methyl)-1-((1-(difluoromethyl)cyclopropyl)methyl)pyrimidine-2,4(1H,3H)-dione], the IC50 was less than 10 nM. `C[C@]1(CO)C[C@H](N2CCOc3cc(C(F)(F)F)cc(-c4ccnc5cc(CN6C(=O)CCC6=O)sc45)c32)CN1` [Example 224, 1-((7-(4-((3S,5R)-5-(hydroxymethyl)-5-methylpyrrolidin-3-yl)-7-(trifluoromethyl)-3,4-dihydro-2H-benzo[b][1,4]oxazin-5-yl)thieno[3,2-b]pyridin-2-yl)methyl)pyrrolidine-2,5-dione] yielded an IC50 of less than 10 nM. The value for `C[C@H]1C[C@@H](N2CCCc3cc(Cl)cc(-c4ccnc5cc(Cn6c(=O)ccn(CC(F)(F)F)c6=O)sc45)c32)CN1` (single isomer, unassigned) [Example 95a] was less than 10 nM. Next, `O=c1ccn(CCOC(F)F)c(=O)n1Cc1cc2nccc(-c3cc(Cl)cc4c3N([C@H]3CCNC3)CCC4)c2s1` [Example 61, (S)-3-((7-(6-chloro-1-(pyrrolidin-3-yl)-1,2,3,4-tetrahydroquinolin-8-yl)thieno[3,2-b]pyridin-2-yl)methyl)-1-(2-(difluoromethoxy)ethyl)pyrimidine-2,4(1H,3H)-dione]: less than 10 nM; `O=C1CCC(=O)N1Cc1cc2nccc(-c3cc(Cl)cc4c3N(C3CNC3)CCC43CC3)c2s1` [Example 48, 1-((7-(1′-(azetidin-3-yl)-6′-chloro-2′,3′-dihydro-1′H-spiro[cyclopropane-1,4′-quinolin]-8′-yl)thieno[3,2-b]pyridin-2-yl)methyl)pyrrolidine-2,5-dione]: 10 to 100 nM. Consider `O=c1ccn(CC(F)(F)F)c(=O)n1Cc1cc2nccc(-c3cc(Cl)cc4c3N([C@@H]3CCNC3)CCC4)c2s1` [Example 56, (R)-3-((7-(6-chloro-1-(pyrrolidin-3-yl)-1,2,3,4-tetrahydroquinolin-8-yl)thieno[3,2-b]pyridin-2-yl)methyl)-1-(2,2,2-trifluoroethyl)pyrimidine-2,4(1H,3H)-dione], for which the IC50 is less than 10 nM. Next, `CN1CC(=O)N(Cc2cc3nccc(-c4cc(Cl)cc5c4N([C@H]4CCNC4)CCC5)c3s2)C1=O` [Example 74, (S)-3-((7-(6-chloro-1-(pyrrolidin-3-yl)-1,2,3,4-tetrahydroquinolin-8-yl)thieno[3,2-b]pyridin-2-yl)methyl)-1-methylimidazolidine-2,4-dione]: less than 10 nM. In turn, `O=C1CCC(=O)N1Cc1cc2nccc(-c3cc(Cl)cc4c3N([C@@H]3CCCNCC3)CCC4)c2s1` (single isomer, unassigned) [Example 47b] gave an IC50 of less than 10 nM. `COC(=O)[C@]1(C)C[C@H](N2CCCc3cc(Cl)cc(-c4ccnc5cc(CN6C(=O)CCC6=O)sc45)c32)CN1` (single isomer, unassigned) [Example 204]: the IC50 is 101 to 1000 nM. Turning to `C[C@]1(CO)C[C@H](N2CCCc3cc(Cl)cc(-c4ccnc5cc(Cn6ncc(C7(C(F)(F)F)CC7)cc6=O)sc45)c32)CN1` [Example 207, 2-((7-(6-chloro-1-((3S,5R)-5-(hydroxymethyl)-5-methylpyrrolidin-3-yl)-1,2,3,4-tetrahydroquinolin-8-yl)thieno[3,2-b]pyridin-2-yl)methyl)-5-(1-(trifluoromethyl)cyclopropyl)pyridazin-3(2H)-one], the half-maximal inhibitory concentration (IC50) was less than 10 nM. On to `O=C1CCC(=O)N1Cc1cc2nccc(-c3cc(Cl)cc4c3N(C3CC5(CCCN5)C3)CCC4)c2s1` (stereo not shown) [Example 180, 1-((7-(6-chloro-1-(5-azaspiro[3.4]octan-2-yl)-1,2,3,4-tetrahydroquinolin-8-yl)thieno[3,2-b]pyridin-2-yl)methyl)pyrrolidine-2,5-dione], for which the IC50 lay in the range of 10 to 100 nM.

For the compound `CC1(C)C2C(=O)N(Cc3cc4nccc(-c5cc(Cl)cc6c5N(C5CNC5)CCC6)c4s3)C(=O)C21` (stereo not shown) [Example 14, 3-[[7-[1-(azetidin-3-yl)-6-chloro-3,4-dihydro-2H-quinolin-8-yl]thieno[3,2-b]pyridin-2-yl]methyl]-6,6-dimethyl-3-azabicyclo[3.1.0]hexane-2,4-dione], the IC50 is 10 to 100 nM. Compound `O=C1C2CC2C(=O)N1Cc1cc2nccc(-c3cc(Cl)cc4c3N([C@@H]3CNC5(CCC5)C3)CCC4)c2s1` (stereo partly drawn) [Example 145, 3-((7-(6-chloro-1-((S)-5-azaspiro[3.4]octan-7-yl)-1,2,3,4-tetrahydroquinolin-8-yl)thieno[3,2-b]pyridin-2-yl)methyl)-3-azabicyclo[3.1.0]hexane-2,4-dione] showed an IC50 of less than 10 nM.

`O=C1CCC(=O)N1Cc1cc2nccc(-c3cc(Cl)cc4c3C3(CCC4)CNCCO3)c2s1` (single isomer, unassigned) [Example 229a] yielded an IC50 of 10 to 100 nM.

For `O=C1CCC(=O)N1Cc1cc2nccc(-c3cc(Cl)cc4c3N([C@H]3CCNC3)CCC4)c2s1` [Example 57, (S)-1-((7-(6-chloro-1-(pyrrolidin-3-yl)-1,2,3,4-tetrahydroquinolin-8-yl)thieno[3,2-b]pyridin-2-yl)methyl)pyrrolidine-2,5-dione], the IC50 is less than 10 nM.

`O=C1CCC(=O)N1Cc1cc2nccc(-c3cc(Cl)cc4c3N(C3CNC5(CCC5)C3)CCO4)c2s1` (single isomer, unassigned) [Example 171a] returned an IC50 of 101 to 1000 nM. `Cc1cnn(Cc2cc3nccc(-c4cc(C#N)cc5c4N(C4CNC(C)(C)C4)CCC5)c3s2)c(=O)c1` (single isomer, unassigned) [Example 120b]: the half-maximal inhibitory concentration (IC50) lay in the range of 101 to 1000 nM. As for `CC1(C)CC(N2CCCc3cc(C#N)cc(-c4ccnc5cc(Cn6ncc(C(C)(C)C)cc6=O)sc45)c32)CN1` (stereo in doubt) [Example 132, (S)-8-(2-((4-(tert-butyl)-6-oxopyridazin-1(6H)-yl)methyl)thieno[3,2-b]pyridin-7-yl)-1-(5,5-dimethylpyrrolidin-3-yl)-1,2,3,4-tetrahydroquinoline-6-carbonitrile], the concentration for half-maximal inhibition (IC50) was less than 10 nM. The compound `O=C1COC(=O)N1Cc1cc2nccc(-c3cc(Cl)cc4c3N([C@@H]3CNC5(CCC5)C3)CCC4)c2s1` [Example 151, (S)-3-((7-(6-chloro-1-(5-azaspiro[3.4]octan-7-yl)-1,2,3,4-tetrahydroquinolin-8-yl)thieno[3,2-b]pyridin-2-yl)methyl)oxazolidine-2,4-dione] gave an IC50 of less than 10 nM. Next, `N#Cc1cc(-c2ccnc3cc(Cn4c(=O)ccn(CC(F)F)c4=O)sc23)c2c(c1)[C@H]1C[C@H]1CN2[C@H]1CCNC1` [Example 117c, (1aR,7bS)-4-(2-((3-(2,2-difluoroethyl)-2,6-dioxo-3,6-dihydropyrimidin-1(2H)-yl)methyl)thieno[3,2-b]pyridin-7-yl)-3-((S)-pyrrolidin-3-yl)-1a,2,3,7b-tetrahydro-1H-cyclopropa[c]quinoline-6-carbonitrile]: 10 to 100 nM.
